Tests used:
[1] = Isoniazid-induced clonic convulsion test (anti-convulsant effect); format: in vivo, mouse (Std-ddY, male); details: Mus musculus, 0.5 h; oral, 30 min before isoniazid 200 mg/kg s.c.; mice; read-out: Anti-isoniazid effect ED25 (dose which prolonged the onset time of clonic convulsion by 25%)
Description: Experiment 3: Isoniazid-induced clonic convulsion test (anti-convulsant effect)
Isoniazid inhibits glutamate decarboxylase which catalyzes GABA synthesis, deases brain GABA levels, and induces clonic convulsion. According to the method of Auta, J. et al. [cf. J. Pharmacol. Exp. Ther. 265, 649-656 (1993)] with slight modification, we examined antagonistic effect of the test compounds on isoniazid-induced clonic convulsion. […] Those are BZ anxiolytics represented by diazepam, neurosteroids such as allopregnanolone, allotetrahydrodeoxycortico-sterone(THDOC) and BZω3 receptor agonists which enhance the synthesis of neurosteroids.
Male mice of Std-ddY strain weighing 22-24 g were used in a group of 6. Thirty minutes after oral administration of the test compounds, mice were injected with isoniazid (200 mg/kg, s.c.), and immediately thereafter, placed individually in acrylic observation cages. The onset time of clonic convulsion was measured (cut-off time: 90 minutes). The latency in the control group was about 40 minutes.
Anti-isoniazid effect of the test compounds was expressed as the dose which prolonged the onset time by 25% compared to that in the vehicle group (ED25). The ED25 value was calculated according to the Litchfield-Wilcoxon's method.

[2] = Light and dark box test (anti-anxiety effect); format: in vivo, mouse (Std-ddY, male); details: Mus musculus, 0.5 h; oral, 30 min before test; mice; p<0.05 vs vehicle; read-out: Anti-anxiety effect MED (minimum effective dose)
Description: Experiment 2: Light and dark box test (anti-anxiety effect)
Anti-anxiety effect of test compounds was examined in a box with light and dark compartments according to the method of Crawley, J. and Goodwin, F. K. [cf. Pharmacol. Biochem. Behav. 13, 167-170 (1980)] with slight modification.
Light and dark box test is a useful, simple and handy method for behaviorally and pharmacologically examining anti-anxiety effect of the drugs, by utilizing the habit of rodents such as mice and rats, etc. which prefer to stay in a dark place, and regarding as positive drug effect the increase of the relative stay of the animals in the light compartment which is an uncomfortable place for the animals.
Light and dark box test was carried out using the test box device (35×15×17 cm) which comprises: a light compartment (20×15×17 cm) consisting of transparent acrylic plates and highly illuminated by an incandescent lamp (1,700 lux); a dark compartment (15×15×17 cm) being made of black acrylic plates connected to the light compartment; and at the boundary of compartments, an opening (4.4×5 cm) in which mice can go through freely between two compartments.
Male mice of Std-ddY strain weighing 25-30 g were used in a group of 10. Each trial was started by placing a mouse in the center of the light compartment 30 minutes after oral administration of a test compound, and the time spent by the mouse in the light compartment during a 5 minute observation period was measured, and the rate of the stay of mice in the light compartment to the whole time spent in the experiment was calculated. The increasing rate of the relative stay of the test compound to that of the vehicle control group was yielded, based on the rate of the stay of mice in the light compartment.
The anti-anxiety effect of the test compound was represented by the minimum effectivetive dose (MED) at which the increasing rate of the relative stay was regarded statistically as significant (Williams-Wilcoxon's test, p<0.05).

[3] = molecular target: peripheral (ω3) benzodiazepine (BZ) receptor (Rattus norvegicus, UniProt P16257); experiment: BZω3 (peripheral-type) benzodiazepine receptor binding assay
Description: Experiment 1: Central (ω1, ω2) and peripheral (ω3) benzodiazepine (BZ) receptor binding assays
BZω1 and BZω2 receptor binding assays were carried out according to the method of Stephens, D. N. et al. [cf.
Receptor membrane fractions for ω1, ω2 and ω3 were prepared from the cerebellum (ω1), spinal cord (ω1) or kidney (ω3) in 7-8 week old male rats of Wistar strain by the procedure described below.
After the cerebellum or spinal cord was homogenized with 20 volumes of ice-cold 50 mM Tris-citrate buffer (pH 7.1), the homogenate was centrifuged for 15 minutes at 40,000 g. The pellet obtained was washed 4 times by the same procedure, frozen and stored for 24 hours at -60° C. The resulting pellet, after being thawed, washed with the buffer and centrifuged, was suspended in the buffer I for the binding assay (50 mM Tris-HCl buffer containing 120 mM NaCl, 5 mM KCl, 2 mM CaCl2 and 1 mM MgCl2 ; pH 7.4) and the suspension thus obtained (containing 1 g wet tissue/40 ml) was used for the BZω1 and BZω2 receptor binding assays. On the other hand, the kidney was homogenized with 20 volumes of the ice-cold buffer II for the binding assay (50 mM Na--K phosphate buffer containing 100 mM NaCl; pH 7.4), filtered through 4 sheets of gauze, and centrifuged for 20 minutes at 40,000 g. The pellet obtained was suspended in the buffer II and the suspension (containing 1 g wet tissue/100 ml) was used for the binding assay as BZω3 receptor membrane source.
Flumazenil (final concentration: 0.3 nM for (ω1 and 1 nM for ω2) and flunitrazepam (final concentration: 10 μM) were used for the BZω1 or BZω2 receptor binding assays as the isotope-labeled and unlabeled ligands, respectively. For the BZω3 receptor binding assay, [^3 H] 4'-chlorodiazepam (7-chloro-1,3-dihydro-1-methyl-5-(4-chlorophenyl)-2H-1,4-benzodiazepin-2-one) (final concentration: 0.5 nM) and diazepam (final concentration: 100 μM) were used as the isotope-labeled and unlabeled ligands, respectively. Incubation was performed for 30 minutes at 37° C. in the BZω1 or BZω2 receptor binding assays, and for 150 minutes at 0° C. in the BZω3 receptor binding assay. The BZω1 or BZω2 receptor binding assays were carried out in the presence of bicuculline (final concentration: 100 μM).
The binding assay was performed by the following procedure. After adding each test compound at certain known concentrations, a [^3 H] ligand and the buffer I or II to each test tube, each assay was started by addition of membrane preparation (total volume of 1 ml). After incubation, the assay was terminated by filtration with suction through a Whatman GF/B glass fiber filter using a cell harvester (Brandel, USA). The filters were rapidly washed 3 times with 5 ml of ice-cold 50 mM Tris-HCl buffer (pH 7.7) for ω1 and ω2, or the buffer II forω3, and transferred to scintillation vials containing 10 ml liquid scintillation cocktail (ACS-II, Amersham, USA). After a few hours, retained radioactivity was counted by a liquid scintillation spectrometer. Specific binding of [^3 H] ligands was calculated as the difference between amounts of radioactivity bound in the presence and absence of excess unlabeled ligands.

IC50 [3] [nM] | SMILES | ED25 [1] [mg/kg] | minimal effective dose [2] [mg/kg]
 | CCN(C(=O)CNc1nc(-c2ccc(OC)cc2)nc(C)c1C)c1ccccc1 [Example 48] | 7.67 | 
 | Cc1nc(-c2ccccc2)nc(NCC(=O)N(C)CC(C)C)c1C [Example 21] | 72.1 | 0.1
2.15 | COc1ccc(N(C)C(=O)CNc2nc(-c3ccc(Cl)cc3)nc(C)c2C)cc1 [Example 42, 2-[2-(4-Chlorophenyl)-5,6-dimethyl-4-pyrimidinylamino]-N-(4-methoxyphenyl)-N-methylacetamide] | 58.7 | < 0.01
 | Cc1nc(-c2ccccc2)nc(NCC(=O)N2C[C@@H](C)O[C@@H](C)C2)c1C [Example 66b, cis-2,6-Dimethyl-4-(5,6-dimethyl-2-phenyl-4-pyrimidinylamino)acetylmorpholine] | 72.4 | 
 | Cc1nc(-c2ccccc2)nc(NCC(=O)N2CC(C)OC(C)C2)c1C (stereo not drawn) [Example 66a, 2,6-Dimethyl-4-(5,6-dimethyl-2-phenyl-4-pyrimidinylamino)acetylmorpholine] | 51.2 | 
 | CCN(CC)C(=O)CNc1nc(-c2ccc(F)cc2)nc(C)c1C [Example 11] | 47.5 | 
1.28 | CCCN(CCC)C(=O)CNc1nc(-c2ccc(OC)cc2)nc(C)c1C [Example 5] | 15.1 | 
1.93 | Cc1nc(-c2ccc(F)cc2)nc(NCC(=O)N(C)c2ccccc2)c1C [Example 25] | 62.1 | 
1.56 | Cc1nc(-c2ccccc2)nc(OCC(=O)N2CC(C)OC(C)C2)c1C (stereo not drawn) [Example 171, 2,6-Dimethyl-4-(5,6-dimethyl-2-phenyl-4-pyrimidinyloxy)acetylmorpholine] | 76.4 | 
29.5 | CCCN(C(=O)CNc1nc(-c2ccccc2)nc(C)c1C)c1ccccc1 [Example 52, 2-(5,6-Dimethyl-2-phenyl-4-pyrimidinylamino)-N-phenyl-N-propylacetamide] | 23.5 | 0.1
4.98 | CCN(C(=O)CNc1nc(-c2ccccc2)nc(C)c1C)c1ccccc1 [Example 44] | 22.4 | 
1.76 | Cc1nc(-c2ccc(Cl)cc2)nc(NCC(=O)N(C)c2ccccc2)c1C [Example 23, 2-[2-(4-Chlorophenyl)-5,6-dimethyl-4-pyrimidinylamino]-N-methyl-N-phenylacetamide] | 40.8 | 0.01
0.85 | Cc1nc(-c2ccccc2)nc(NCC(=O)N(C)c2ccc(Cl)cc2)c1C [Example 29, N-(4-Chlorophenyl)-N-methyl-2-(5,6-dimethyl-2-phenyl-4-pyrimidinylamino) a cetamide] | 67.5 | 0.03
3.1 | CCCN(CCC)C(=O)CNc1nc(-c2ccccc2)nc(C)c1C [Example 1, 2-(5,6-dimethyl-2-phenyl-4-pyrimidinylamino)-N,N-dipropylacetamide] | 82.2 | 0.3
1.51 | Cc1nc(-c2ccccc2)nc(NCC(=O)N(C)c2ccc(F)cc2)c1C [Example 35] | 85.7 | 0.1
0.97 | CCCN(CCC)C(=O)CNc1nc(-c2ccc(Cl)cc2)nc(C)c1C [Example 2, 2-[2-(4-Chlorophenyl)-5,6-dimethyl-4-pyrimidinylamino]-N,N-dipropylacetamide] | 65.6 | 0.01
3.26 | Cc1nc(-c2ccccc2)nc(NCC(=O)N(C)c2ccccc2)c1C [Example 22] | 50.3 | 0.3
1.44 | Cc1nc(-c2ccc(Cl)cc2)nc(NCC(=O)N(C)c2ccc(F)cc2)c1C [Example 36, 2-[2-(4-Chlorophenyl)-5,6-dimethyl-4-pyrimidinylamino]-N-(4-fluorophenyl)-N-methylacetamide] | 54.2 | 0.3
 | C=CCN(C(=O)CNc1nc(-c2ccc(Cl)cc2)nc(C)c1C)c1ccccc1 [Example 59] | 14.8 | 
0.38 | CCCN(CCC)C(=O)COc1nc(-c2ccc(OC)cc2)nc(C)c1C [Example 139] |  | 0.1
1.62 | C=CCN(C(=O)CNc1nc(-c2ccccc2)nc(C)c1C)c1ccccc1 [Example 58] | 11.8 | 

IC50 [3] [nM] | SMILES | ED25 [1] [mg/kg] | minimal effective dose [2] [mg/kg]
1.66 | Cc1nc(-c2ccccc2)nc(NCC(=O)N(C)c2ccc(Br)cc2)c1C [Example 37] | 61.9 | 0.1
 | CCN(C(=O)CNc1nc(-c2ccc([N+](=O)[O-])cc2)nc(C)c1C)c1ccccc1 [Example 50] | 27.3 | 
1.66 | Cc1nc(-c2ccccc2)nc(NCC(=O)N2CC(C)CC(C)C2)c1C (stereo not drawn) [Example 65, 3,5-Dimethyl-1-(5,6-dimethyl-2-phenyl-4-pyrimidinylamino)acetylpiperidine] | 31.1 | 
 | COc1ccc(-c2nc(C)c(C)c(OCC(=O)N(C)c3ccc(Cl)cc3)n2)cc1 [Example 150] |  | 0.3
 | Cc1nc(-c2ccccc2)nc(NCC(=O)N(C)c2cccc(Cl)c2)c1C [Example 31] |  | 0.3
1.97 | CCCN(CC)C(=O)CNc1nc(-c2ccccc2)nc(C)c1C [Example 17] | 45.7 | 
9.8 | Cc1nc(-c2ccccc2)nc(NCC(=O)N(CC2CC2)c2ccccc2)c1C [Example 61] | 17.7 | 
4.36 | CCCN(CCC)C(=O)CNc1nc(-c2ccc(F)cc2)nc(C)c1C [Example 4] | 51.2 | 
5.02 | CCCN(CCC)C(=O)CNc1nc(-c2ccccc2)nc(C)c1CC [Example 83, 2-(5-ethyl-6-methyl-2-phenyl-4-pyrimidinylamino)-N,N-dipropylacetamide] | 70.2 | 
 | CCN(CC)C(=O)CNc1nc(-c2ccccc2)nc(C)c1C [Example 9] | 25.5 | 0.3
 | CCCN(C(=O)CNc1nc(-c2ccc(Cl)cc2)nc(C)c1C)c1ccccc1 [Example 53] | 11.3 | 
0.16 | CCN(C(=O)CNc1nc(-c2ccc(F)cc2)nc(C)c1C)c1ccccc1 [Example 47] | 7.62 | 
0.7 | CCN(CC)C(=O)CNc1nc(-c2ccc(Cl)cc2)nc(C)c1C [Example 10, 2-[2-(4-Chlorophenyl)-5,6-dimethyl-4-pyrimidinylamino]-N,N-diethylacetamide] | 36.9 | 1
0.87 | Cc1nc(-c2ccccc2)nc(N2CCCC2C(=O)N(C)c2ccc(Cl)cc2)c1C (stereo not drawn) [Example 79, N-(4-chlorophenyl)-N-methyl-1-(5,6-dimethyl-2-phenyl-4-pyrimidinyl)-2-pyrrolidinecarboxamide] | 43.8 | 
4 | CCCCN(CCCC)C(=O)CNc1nc(-c2ccc(F)cc2)nc(C)c1C [Example 16] |  | 0.1
 | CCN(CC)C(=O)CNc1nc(-c2ccc(OC)cc2)nc(C)c1C [Example 12] | 31.8 | 
0.7 | CCN(C(=O)CNc1nc(-c2ccc(Cl)cc2)nc(C)c1C)c1ccccc1 [Example 45, 2-[2-(4-Chlorophenyl)-5,6-dimethyl-4-pyrimidinylamino]-N-ethyl-N-phenylacetamide] | 9.6 | 0.1
6.9 | CCCN(CCC)C(=O)C1Cc2ccccc2N1c1nc(-c2ccccc2)nc(C)c1C (stereo not drawn) [Example 81, 2,3-dihydro-1-(5,6-dimethyl-2-phenyl-4-pyrimidinyl)-N,N-dipropyl-1H-indole-2-carboxamide] |  | 
 | C=CCN(C(=O)CNc1nc(-c2ccc(OC)cc2)nc(C)c1C)c1ccccc1 [Example 60] | 2.14 | 
1.31 | CCCN(CCC)C(=O)COc1nc(-c2cccc(Cl)c2)nc2c1CCCC2 [Example 130] |  | 

Source: patent US5972946A, “Acetamide derivative, process for preparing the same, and a pharmaceutical composition containing the same” (Dainippon Pharmaceutical Co., Ltd., priority 1995, dated 1999)
